Measured values from patent publication US20250026759A1 (Merck Sharp & Dohme LLC, priority 2023, published 2025).

tested on: PBMCs infected with VSV-G pseudotyped HIV virus (VSV-G/pNLG1-P2A-ΔEnv); experiment: cells; format: cell-based, human; details: Homo sapiens, PBMC, read-out: TACK EC50

Structure (SMILES)	EC50 [nM]
Cc1nn(Cc2cc3c(cc2F)[C@@](C#CC2CC2)(C(C)(F)F)NC(=O)N3)c(=O)n1C [Example 128, (S)-4-(cyclopropylethynyl)-4-(1,1-difluoroethyl)-7-((3,4-dimethyl-5-oxo-4,5-dihydro-1H-1,2,4-triazol-1-yl)methyl)-6-fluoro-3,4-dihydroquinazolin-2(1H)-one]	115
O=C1Nc2cc(CNC(=O)c3nnc[nH]3)c(F)cc2[C@@](C#CC2CC2)(C(F)(F)F)N1 [Example 85, (S)-N-((4-(cyclopropylethynyl)-6-fluoro-2-oxo-4-(trifluoromethyl)-1,2,3,4-tetrahydroquinazolin-7-yl)methyl)-4H-1,2,4-triazole-3-carboxamide]	280
O=C1Nc2cc(Cn3c(Cl)n[nH]c3=O)c(F)cc2[C@@](C#CC2CC2)(C(F)(F)F)N1 [Example 36, (S)-7-((3-chloro-5-oxo-1,5-dihydro-4H-1,2,4-triazol-4-yl)methyl)-4-(cyclopropylethynyl)-6-fluoro-4-(trifluoromethyl)-3,4-dihydroquinazolin-2(1H)-one]	13.3
COc1nccn1Cc1cc2c(cc1F)[C@@](C#CC1CC1)(C(C)(F)F)NC(=O)N2 [Example 74, (S)-4-(cyclopropylethynyl)-4-(1,1-difluoroethyl)-6-fluoro-7-((2-methoxy-1H-imidazol-1-yl)methyl)-3,4-dihydroquinazolin-2(1H)-one]	38.1
CC(F)(F)[C@@]1(C#CC2CC2)NC(=O)Nc2cc(Cn3cc(Cl)c(CO)n3)c(F)cc21 [Example 71, (S)-7-((4-chloro-3-(hydroxymethyl)-1H-pyrazol-1-yl)methyl)-4-(cyclopropylethynyl)-4-(1,1-difluoroethyl)-6-fluoro-3,4-dihydroquinazolin-2(1H)-one]	30
Cc1cc[nH]c1C(=O)NCc1cc2c(cc1F)[C@@](C#CC1CC1)(C(F)(F)F)NC(=O)N2 [Example 86, (S)-N-((4-(cyclopropylethynyl)-6-fluoro-2-oxo-4-(trifluoromethyl)-1,2,3,4-tetrahydroquinazolin-7-yl)methyl)-3-methyl-1H-pyrrole-2-carboxamide]	15.7
O=C1Nc2cc(Cn3c(=O)[nH]c4cnccc43)c(F)cc2[C@@](C#CC2CC2)(C(F)(F)F)N1 [Example 39, (S)-4-(cyclopropylethynyl)-6-fluoro-7-((2-oxo-2,3-dihydro-1H-imidazo[4,5-c]pyridin-1-yl)methyl)-4-(trifluoromethyl)-3,4-dihydroquinazolin-2(1H)-one]	13.7
CC(F)(F)[C@@]1(C#CC2CC2)NC(=O)Nc2cc(CN3C(=O)CNC3=O)c(F)cc21 [Example 14, (S)-3-((4-(cyclopropylethynyl)-4-(1,1-difluoroethyl)-6-fluoro-2-oxo-1,2,3,4-tetrahydroquinazolin-7-yl)methyl)imidazolidine-2,4-dione]	24.8
CC(F)(F)[C@@]1(C#CC2CC2)NC(=O)Nc2cc(Cn3cccn3)c(F)cc21 [Example 55, (S)-7-((1H-pyrazol-1-yl)methyl)-4-(cyclopropylethynyl)-4-(1,1-difluoroethyl)-6-fluoro-3,4-dihydroquinazolin-2(1H)-one]	21.7
CC(F)(F)[C@@]1(C#CC2CC2)NC(=O)Nc2cc(Cn3ccnc3)c(F)cc21 [Example 56, (S)-7-((1H-imidazol-1-yl)methyl)-4-(cyclopropylethynyl)-4-(1,1-difluoroethyl)-6-fluoro-3,4-dihydroquinazolin-2(1H)-one]	28
CC(F)(F)[C@@]1(C#CC2CC2)NC(=O)Nc2cc(CNC(=O)c3ncc[nH]3)c(F)cc21 [Example 79, (S)—N-((4-(cyclopropylethynyl)-4-(1,1-difluoroethyl)-6-fluoro-2-oxo-1,2,3,4-tetrahydroquinazolin-7-yl)methyl)-1H-imidazole-2-carboxamide]	9.2
CC(C)(O)c1ccn(Cc2cc3c(cc2F)[C@@](C#CC2CC2)(C(C)(F)F)NC(=O)N3)n1 [Example 129, (S)-4-(cyclopropylethynyl)-4-(1,1-difluoroethyl)-6-fluoro-7-((3-(2-hydroxypropan-2-yl)-1H-pyrazol-1-yl)methyl)-3,4-dihydroquinazolin-2(1H)-one]	171
O=C1Nc2cc(Cn3c(=O)[nH]c4cccnc43)c(F)cc2[C@@](C#CC2CC2)(C(F)(F)F)N1 (single isomer, unassigned) [Example 7]	12
CNc1ccn(Cc2cc3c(cc2F)[C@@](C#CC2CC2)(C(C)(F)F)NC(=O)N3)n1 [Example 75, (S)-4-(cyclopropylethynyl)-4-(1,1-difluoroethyl)-6-fluoro-7-((3-(methylamino)-1H-pyrazol-1-yl)methyl)-3,4-dihydroquinazolin-2(1H)-one]	36.9
COc1cn(Cc2cc3c(cc2F)[C@@](C#CC2CC2)(C(C)(F)F)NC(=O)N3)nc1N [Example 99, (S)-7-((3-amino-4-methoxy-1H-pyrazol-1-yl)methyl)-4-(cyclopropylethynyl)-4-(1,1-difluoroethyl)-6-fluoro-3,4-dihydroquinazolin-2(1H)-one]	13.1
Cn1ccc(-c2ccn(Cc3cc4c(cc3F)[C@@](C#CC3CC3)(C(C)(F)F)NC(=O)N4)n2)n1 [Example 53, (S)-4-(cyclopropylethynyl)-4-(1,1-difluoroethyl)-6-fluoro-7-((1′-methyl-1H,1′H-[3,3′-bipyrazol]-1-yl)methyl)-3,4-dihydroquinazolin-2(1H)-one]	28.3
CN1CC(=O)N(Cc2cc3c(cc2F)[C@@](C#CC2CC2)(C(C)(F)F)NC(=O)N3)C1=O [Example 110, (S)-3-((4-(cyclopropylethynyl)-4-(1,1-difluoroethyl)-6-fluoro-2-oxo-1,2,3,4-tetrahydroquinazolin-7-yl)methyl)-1-methylimidazolidine-2,4-dione]	43.9
CC(F)(F)[C@@]1(C#CC2CC2)NC(=O)Nc2cc(Cn3nc(N)cc3Cl)c(F)cc21 [Example 60, (S)-7-((3-amino-5-chloro-1H-pyrazol-1-yl)methyl)-4-(cyclopropylethynyl)-4-(1,1-difluoroethyl)-6-fluoro-3,4-dihydroquinazolin-2(1H)-one]	28.9
COc1cnn(Cc2cc3c(cc2Cl)[C@@](C#CC2CC2)(C(F)(F)F)NC(=O)N3)c1 [Example 123, (S)-6-chloro-4-(cyclopropylethynyl)-7-((4-methoxy-1H-pyrazol-1-yl)methyl)-4-(trifluoromethyl)-3,4-dihydroquinazolin-2(1H)-one]	79
O=C1Nc2cc(Cc3[nH]nc4ccccc34)c(F)cc2[C@@](C#CC2CC2)(C(F)(F)F)N1 [Example 119, (S)-7-((2H-indazol-3-yl)methyl)-4-(cyclopropylethynyl)-6-fluoro-4-(trifluoromethyl)-3,4-dihydroquinazolin-2(1H)-one]	57.8
CC(F)(F)[C@@]1(C#CC2CC2)NC(=O)Nc2cc(Cn3c(=O)[nH]c4ccccc43)c(F)cc21 [Example 12, (S)-4-(cyclopropylethynyl)-4-(1,1-difluoroethyl)-6-fluoro-7-((2-oxo-2,3-dihydro-1H-benzo[d]imidazol-1-yl)methyl)-3,4-dihydroquinazolin-2(1H)-one]	19.6
